Experimental data reported in PubChem BioAssay (NCI).
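Grown in 96-well plates, cells were treated for 48 hours with each compound at five concentrations. Insufficient inhibition: endpoint recorded as highest concentration tested. GI50: concentration for 50% inhibition of growth. TGI: concentration producing complete growth inhibition.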

What was measured:
Assay in all cases: inhibition of tumour cell growth, NCI panel, 48 h
[1] = system: 786-0 renal
[2] = system: A498 renal
[3] = system: A549 NSCLC
[4] = system: ACHN renal
[5] = system: BT-549 breast
[6] = system: CAKI-1 renal
[7] = system: CCRF-CEM leukemia
[8] = system: COLO 205 colon
[9] = system: DU-145 prostate
[10] = system: EKVX NSCLC
[11] = system: HCC-2998 colon
[12] = system: HCT-116 colon
[13] = system: HCT-15 colon
[14] = system: HL-60(TB) leukemia
[15] = system: HOP-62 NSCLC
[16] = system: HOP-92 NSCLC
[17] = system: HS 578T breast
[18] = system: HT29 colon
[19] = system: IGROV1 ovarian
[20] = system: K-562 leukemia
[21] = system: KM12 colon
[22] = system: LOX IMVI melanoma
[23] = system: M14 melanoma
[24] = system: MALME-3M melanoma
[25] = system: MCF7 breast
[26] = system: MDA-MB-231 breast
[27] = system: MDA-MB-435
[28] = system: MDA-MB-468 breast
[29] = system: MOLT-4 leukemia
[30] = system: NCI-H226 lung

## CCOc1ccccc1[C@H]1C(C(=O)c2ccc(Cl)cc2)C2(N[C@@H]1c1ccccc1)C(=O)Nc1ccccc12 (some centres undefined)
[1]
  GI50: 8.94 µM
  TGI: > 39.8 µM
[2]
  GI50: 7.7 µM
  TGI: 20.7 µM
[3]
  GI50: 10.4 µM
  TGI: > 39.8 µM
[4]
  GI50: 10.1 µM
  TGI: > 39.8 µM
[5]
  GI50: 6.89 µM
  TGI: 22.8 µM
[6]
  GI50: 4.08 µM
  TGI: > 39.8 µM
[7]
  GI50: 29.2 µM
  TGI: > 39.8 µM
[8]
  GI50: 6.82 µM
  TGI: 14 µM
[9]
  GI50: 13.1 µM
  TGI: > 39.8 µM
[10]
  GI50: 8.62 µM
  TGI: > 39.8 µM
[11]
  GI50: 7.9 µM
  TGI: 29.8 µM
[12]
  GI50: 6.75 µM
  TGI: > 39.8 µM
[13]
  GI50: 8.87 µM
  TGI: > 39.8 µM
[14]
  GI50: 5.6 µM
  TGI: 32.4 µM
[15]
  GI50: 18.9 µM
  TGI: > 39.8 µM
[16]
  GI50: 6.65 µM
  TGI: 29.3 µM
[17]
  GI50: 6.08 µM
  TGI: 22.9 µM
[18]
  GI50: 7.26 µM
  TGI: 36.1 µM
[19]
  GI50: 8.69 µM
  TGI: > 39.8 µM
[20]
  GI50: 9.06 µM
  TGI: > 39.8 µM
[21]
  GI50: 11.3 µM
  TGI: > 39.8 µM
[22]
  GI50: 2.85 µM
  TGI: 10.3 µM
[23]
  GI50: 7.69 µM
  TGI: > 39.8 µM
[24]
  GI50: 7.4 µM
  TGI: 18.6 µM
[25]
  GI50: 6.78 µM
  TGI: > 39.8 µM
[26]
  GI50: 5.37 µM
  TGI: 34.3 µM
[27]
  GI50: 4.06 µM
  TGI: 16.3 µM
[28]
  GI50: 1.31 µM
  TGI: 8.19 µM
[29]
  GI50: 4.68 µM
  TGI: > 39.8 µM
[30]
  GI50: 5.44 µM
